Read-outs that look alike come from different tables or passages of the source.
Assays:
[1] = tested on: IKKε-mediated phosphorylation of IRF3; test: ELISA for in-situ phosphorylation of IRF3 (phospho-Ser396) in HEK293T cells cotransfected with IRF3 and IKKε; assay type: cell-based; conditions: Homo sapiens, HEK-293T, 20 h, HEK293T cells, 20 hours, read-out: IC50, in-situ IKKε-mediated phosphorylation of IRF3
Summary of the method: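 HEK293T cells cotransfected with IRF3 and IKKε were treated with compound for 20 h, and lysates were assayed by ELISA for phospho-Ser396 IRF3, normalized to DMSO. Viability was checked in parallel by CellTiter-Glo. For TBK1, cells cotransfected with IRF7 and TBK1 were treated overnight and probed by Western blot for phospho-Ser477/Ser479 IRF7.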

IKKε = molecular target: T1, IKKε (Homo sapiens, UniProt Q14164); test: In-vitro IKKε kinase assay (radiolabelled ATP, filterplate); assay type: biochemical
T1 construct: His-tag (in-house Sf9 preparation) or GST-tag (purchased Invitrogen preparation); these are alternatives, not both on one protein; host or cells: Sf9 cells
T1 sequence (Q14164 1-716): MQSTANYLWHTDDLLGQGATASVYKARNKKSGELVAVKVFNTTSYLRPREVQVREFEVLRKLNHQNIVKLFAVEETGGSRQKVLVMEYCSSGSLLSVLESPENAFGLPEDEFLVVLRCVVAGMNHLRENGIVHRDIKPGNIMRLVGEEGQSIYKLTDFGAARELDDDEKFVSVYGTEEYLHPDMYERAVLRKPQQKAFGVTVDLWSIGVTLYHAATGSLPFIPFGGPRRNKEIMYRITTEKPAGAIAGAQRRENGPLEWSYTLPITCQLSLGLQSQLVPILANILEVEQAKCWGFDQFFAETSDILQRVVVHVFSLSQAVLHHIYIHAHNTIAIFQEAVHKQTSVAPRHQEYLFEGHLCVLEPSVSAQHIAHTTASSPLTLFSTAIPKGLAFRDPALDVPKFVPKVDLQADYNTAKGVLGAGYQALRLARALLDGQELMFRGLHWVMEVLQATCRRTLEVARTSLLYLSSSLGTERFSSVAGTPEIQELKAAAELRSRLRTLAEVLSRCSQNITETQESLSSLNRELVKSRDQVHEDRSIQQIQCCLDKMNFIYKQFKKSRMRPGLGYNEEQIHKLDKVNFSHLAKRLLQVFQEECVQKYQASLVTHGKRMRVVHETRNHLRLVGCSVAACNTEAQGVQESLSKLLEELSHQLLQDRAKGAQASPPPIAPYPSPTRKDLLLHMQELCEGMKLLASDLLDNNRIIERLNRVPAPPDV
Summary of the method: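 His-tagged IKKε from Sf9 cells or GST-tagged IKKε, with myelin basic protein, casein or dephosphorylated casein as substrate and 32 μM ATP (2× Km) plus [γ^33]ATP. "Normal" assay used 0.1 μg/ml enzyme; "sensitized" used 0.015 μg/ml with dephosphorylated casein only. Stopped after 30–45 min with phosphoric acid; P-81 filter counts normalized to DMSO after background subtraction.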

[2] = range given from about 1 μM to about 250 nM
[3] = "sensitized" assay, read-out: IC50, inhibition of the kinase activity of IKKε
[4] = in-vitro IKKε kinase inhibition assays, given as 0.005 μM (5 nM), read-out: IKKε kinase inhibitory activity (IC50 value)

Row | SMILES | IC50 [1, 2] [nM] | IC50 [1] [nM] | IC50 (IKKε; [4]) [nM] | IC50 (IKKε; [3]) [nM]
1 | N#Cc1cc(-c2ccnc(Nc3cncc(CN4CCOCC4)c3)n2)ccc1OC1CCOCC1 [Example Compound 185, 5-(2-{[5-(Morpholin-4-ylmethyl)pyridin-3-yl]amino}pyrimidin-4-yl)-2-(tetrahydro-2H-pyran-4-yloxy)benzonitrile] | 250 to 1000 | – | – | < 5
2 | CN(C)C1CCN(c2ccc(Nc3nccc(-c4ccc(OC5CCOCC5)c(C#N)c4)n3)nn2)C1 (centres unmarked) [Example Compound 87, 5-[2-({6-[3-(Dimethylamino)pyrrolidin-1-yl]pyridazin-3-yl}amino)pyrimidin-4-yl]-2-(tetrahydro-2H-pyran-4-yloxy)benzonitrile] | 250 to 1000 | – | < 5 | < 5
3 | CCN(CC)c1ccc(Nc2nccc(-c3ccc(O[C@@H]4CCN(C(=O)CO)C4)c(C#N)c3)n2)cn1 [Example Compound 117, 5-(2-{[6-(Diethylamino)pyridin-3-yl]amino}pyrimidin-4-yl)-2-{[(3R)-1-(hydroxyacetyl)pyrrolidin-3-yl]oxy}benzonitrile] | 250 to 1000 | – | < 5 | < 5
4 | N#Cc1cc(-c2ccnc(Nc3ccc(-c4cccnc4)nc3)n2)ccc1OC1CCOCC1 [Example Compound 79, 5-[2-(2,3′-Bipyridin-5-ylamino)pyrimidin-4-yl]-2-(tetrahydro-2H-pyran-4-yloxy)benzonitrile] | 250 to 1000 | – | < 5 | < 5
5 | Cc1ccc(Nc2nccc(-c3ccc(OC4CCN(C(=O)CO)CC4)c(C#N)c3)n2)cn1 [Example Compound 130, 2-{[1-(Hydroxyacetyl)piperidin-4-yl]oxy}-5-{2-[(6-methylpyridin-3-yl)amino]pyrimidin-4-yl}benzonitrile] | – | 1000 to 5000 | < 5 | –
6 | COc1cc(Nc2nccc(-c3ccc(O[C@@H]4CCN(C(=O)CO)C4)c(C#N)c3)n2)ccn1 [Example Compound 225, 2-{[(3R)-1-(Hydroxyacetyl)pyrrolidin-3-yl]oxy}-5-{2-[(2-methoxypyridin-4-yl)amino]pyrimidin-4-yl}benzonitrile] | – | 1000 to 5000 | – | < 5
7 | N#Cc1cc(-c2ccnc(Nc3ccnc(NCCO)c3)n2)ccc1OC1CCN(C(=O)CO)CC1 [Example Compound 239, 2-{[1-(Hydroxyacetyl)piperidin-4-yl]oxy}-5-[2-({2-[(2-hydroxyethyl)amino]pyridin-4-yl}amino)pyrimidin-4-yl]benzonitrile] | – | 1000 to 5000 | – | < 5
8 | N#Cc1cc(-c2ccnc(Nc3ccnc(N4CC(O)C4)c3)n2)ccc1NC(=O)C1CC1 [Example Compound 237, N-[2-Cyano-4-(2-{[2-(3-hydroxyazetidin-1-yl)pyridin-4-yl]amino}pyrimidin-4-yl)phenyl]cyclopropanecarboxamide] | – | 1000 to 5000 | – | < 5
9 | COc1cc(Nc2nccc(-c3ccc(OC4CCN(C(=O)CO)CC4)c(C#N)c3)n2)ccn1 [Example Compound 131, 2-{[1-(Hydroxyacetyl)piperidin-4-yl]oxy}-5-{2-[(2-methoxypyridin-4-yl)amino]pyrimidin-4-yl}benzonitrile] | – | 100 to 250 | < 5 | –
10 | N#Cc1cc(-c2ccnc(Nc3ccc(/C=C/CN4CCOCC4)nc3)n2)ccc1OC1CCOCC1 [Example Compound 94, 5-[2-({6-[(1E)-3-(Morpholin-4-yl)prop-1-en-1-yl]pyridin-3-yl}amino)pyrimidin-4-yl]-2-(tetrahydro-2H-pyran-4-yloxy)benzonitrile] | – | 100 to 250 | < 5 | –
11 | Cc1ccc(Nc2nccc(-c3ccc(OC4CCOCC4)c(C#N)c3)n2)cn1 [Example Compound 7, 5 5-{2-[(6-Methylpyridin-3-yl)amino]pyrimidin-4-yl}-2-(tetrahydro-2H-pyran-4-yloxy)benzonitrile] | – | 100 to 250 | < 5 | < 5
12 | COC1CN(Cc2cncc(Nc3nccc(-c4ccc(OC5CCOCC5)c(C#N)c4)n3)c2)C1 [Example Compound 23, 5-[2-({5-[(3-Methoxyazetidin-1-yl)methyl]pyridin-3-yl}amino)pyrimidin-4-yl]-2-(tetrahydro-2H-pyran-4-yloxy)benzonitrile] | 250 to 1000 | – | < 5 | < 5

More lines, main results first:

Row | IC50 [1, 2] [nM] | IC50 [1] [nM] | IC50 (IKKε; [4]) [nM] | SMILES | IC50 (IKKε; [3]) [nM]
13 | – | < 100 | < 5 | N#Cc1cc(-c2ccnc(Nc3ccnc(N4CCOCC4)c3)n2)ccc1OC1CCOCC1 [Example Compound 44, 5-(2-{[2-(Morpholin-4-yl)pyridin-4-yl]amino}pyrimidin-4-yl)-2-(tetrahydro-2H-pyran-4-yloxy)benzonitrile] | < 5
14 | – | < 100 | < 5 | N#Cc1cc(-c2ccnc(Nc3ccc(-c4cn[nH]c4)nc3)n2)ccc1OC1CCOCC1 [Example Compound 78, 5-(2-{[6-(1H-Pyrazol-4-yl)pyridin-3-yl]amino}pyrimidin-4-yl)-2-(tetrahydro-2H-pyran-4-yloxy)benzonitrile] | –
15 | – | < 100 | – | COC1CN(c2cc(Nc3nccc(-c4ccc(OC5CCN(C(=O)CO)CC5)c(C#N)c4)n3)ccn2)C1 [Example Compound 249, 2-{[1-(Hydroxyacetyl)piperidin-4-yl]oxy}-5-(2-{[2-(3-methoxyazetidin-1-yl)pyridin-4-yl]amino}pyrimidin-4-yl)benzonitrile] | < 5
16 | – | < 100 | < 5 | N#Cc1cc(-c2ccnc(Nc3ccnc(N4CCN(CCO)CC4)c3)n2)ccc1OC1CCOCC1 [Example Compound 42, 5-[2-({2-[4-(2-Hydroxyethyl)piperazin-1-yl]pyridin-4-yl}amino)pyrimidin-4-yl]-2-(tetrahydro-2H-pyran-4-yloxy)benzonitrile] | < 5
17 | – | < 100 | < 5 | COCCNc1ncc(-c2ccc(Nc3nccc(-c4ccc(OC5CCOCC5)c(C#N)c4)n3)cn2)cn1 [Example Compound 80, 5-{2-[(6-{2-[(2-Methoxyethyl)amino]pyrimidin-5-yl}pyridin-3-yl)amino]pyrimidin-4-yl}-2-(tetrahydro-2H-pyran-4-yloxy)benzonitrile] | –
18 | – | < 100 | – | COCCNc1cc(Nc2nccc(-c3ccc(OC4CCOCC4)c(C#N)c3)n2)ccn1 [Example Compound 193, 5-[2-({2-[(2-Methoxyethyl)amino]pyridin-4-yl}amino)pyrimidin-4-yl]-2-(tetrahydro-2H-pyran-4-yloxy)benzonitrile] | < 5
19 | – | < 100 | < 5 | COC1CN(c2cc(Nc3nccc(-c4ccc(OC5CCOCC5)c(C#N)c4)n3)ccn2)C1 [Example Compound 43, 5-(2-{[2-(3-Methoxyazetidin-1-yl)pyridin-4-yl]amino}pyrimidin-4-yl)-2-(tetrahydro-2H-pyran-4-yloxy)benzonitrile] | < 5
20 | – | < 100 | < 5 | N#Cc1cc(-c2ccnc(Nc3ccc(-n4ccnc4)nc3)n2)ccc1OC1CCOCC1 [Example Compound 75, 5-(2-{[6-(1H-Imidazol-1-yl)pyridin-3-yl]amino}pyrimidin-4-yl)-2-(tetrahydro-2H-pyran-4-yloxy)benzonitrile] | –
21 | – | 100 to 250 | < 5 | COCCOC1CN(c2cc(Nc3nccc(-c4ccc(OC5CCOCC5)c(C#N)c4)n3)ccn2)C1 [Example Compound 45, 5-[2-({2-[3-(2-Methoxyethoxy)azetidin-1-yl]pyridin-4-yl}amino)pyrimidin-4-yl]-2-(tetrahydro-2H-pyran-4-yloxy)benzonitrile] | < 5
22 | – | 100 to 250 | < 5 | N#Cc1cc(-c2ccnc(Nc3ccc(C(=O)N4CCCC4)nc3)n2)ccc1OC1CCOCC1 [Example Compound 29, 5-(2-{[6-(Pyrrolidin-1-ylcarbonyl)pyridin-3-yl]amino}pyrimidin-4-yl)-2-(tetrahydro-2H-pyran-4-yloxy)benzonitrile] | < 5
23 | – | < 100 | – | N#Cc1cc(-c2ccnc(Nc3ccc(N4CC(O)C4)nc3)n2)ccc1OC1CCOCC1 [Example Compound 215, 5-(2-{[6-(3-Hydroxyazetidin-1-yl)pyridin-3-yl]amino}pyrimidin-4-yl)-2-(tetrahydro-2H-pyran-4-yloxy)benzonitrile] | < 5
